pIC50: −log10 of the molar value. Values after ≈ are worked out from the molar mass of the structure shown. Active and inactive are the calls of the source. The calls are words filed in the database; no cut-off is given here.

Data on six compounds can be found in ChEMBL document CHEMBL4304804, “Synthesis and biological evaluation of calycanthaceous alkaloid analogs” (Bioorg Med Chem, 2019).

One assay concerns Aspergillus niger. Kind of assay: Antifungal activity against Aspergillus niger assessed as reduction in fungal cell growth incubated for 48 hrs by serial dilution method. It is filed as functional.
In a further assay the test system is Cryptococcus neoformans. Kind of assay: Antifungal activity against Cryptococcus neoformans assessed as reduction in fungal cell growth incubated for 48 hrs by serial dilution method. The format is functional.
In another assay the test system is Bacillus cereus. Kind of assay: Antibacterial activity against Bacillus cereus assessed as reduction in bacterial cell growth incubated for 24 hrs by filter paper assay. The format is functional.
A further assay has as its system Curvularia lunata. Kind of assay: Antifungal activity against Curvularia lunata assessed as reduction in fungal cell growth incubated for 48 hrs by serial dilution method. It is filed as functional.
The test system of the next assay is Ralstonia solanacearum. Kind of assay: Antibacterial activity against Ralstonia solanacearum assessed as reduction in bacterial cell growth incubated for 24 hrs by filter paper assay. It is filed as functional.
The next assay relates to Aspergillus flavus. Kind of assay: Antifungal activity against Aspergillus flavus assessed as reduction in fungal cell growth incubated for 48 hrs by serial dilution method. It is filed as functional.
In assay [1] the test system is Fusarium oxysporum f. sp. vasinfectum. Put plainly: Antifungal activity against Fusarium oxysporum sp. vasinfectum assessed as reduction in fungal cell growth incubated for 48 hrs by serial dilution method. It is filed as functional.
A further assay concerns Pseudomonas aeruginosa. Put plainly: Antibacterial activity against Pseudomonas aeruginosa assessed as reduction in bacterial cell growth incubated for 24 hrs by filter paper assay. The format is functional.
The next assay deals with Candida tropicalis. Put plainly: Antifungal activity against Candida tropicalis assessed as reduction in fungal cell growth incubated for 48 hrs by serial dilution method. The format is functional.
In a further assay the test system is Cytospora. Put plainly: Antifungal activity against Cytospora juglandis assessed as reduction in fungal cell growth incubated for 48 hrs by serial dilution method. It is filed as functional.
The target in another assay is Acetylcholinesterase (Electrophorus electricus, UniProt O42275). Kind of assay: Inhibition of electric eel AChE by Ellman's colorimetry. A general note: Ellman's reagent forms a yellow product with free thiols.
Chain of Acetylcholinesterase (O42275 whole entry): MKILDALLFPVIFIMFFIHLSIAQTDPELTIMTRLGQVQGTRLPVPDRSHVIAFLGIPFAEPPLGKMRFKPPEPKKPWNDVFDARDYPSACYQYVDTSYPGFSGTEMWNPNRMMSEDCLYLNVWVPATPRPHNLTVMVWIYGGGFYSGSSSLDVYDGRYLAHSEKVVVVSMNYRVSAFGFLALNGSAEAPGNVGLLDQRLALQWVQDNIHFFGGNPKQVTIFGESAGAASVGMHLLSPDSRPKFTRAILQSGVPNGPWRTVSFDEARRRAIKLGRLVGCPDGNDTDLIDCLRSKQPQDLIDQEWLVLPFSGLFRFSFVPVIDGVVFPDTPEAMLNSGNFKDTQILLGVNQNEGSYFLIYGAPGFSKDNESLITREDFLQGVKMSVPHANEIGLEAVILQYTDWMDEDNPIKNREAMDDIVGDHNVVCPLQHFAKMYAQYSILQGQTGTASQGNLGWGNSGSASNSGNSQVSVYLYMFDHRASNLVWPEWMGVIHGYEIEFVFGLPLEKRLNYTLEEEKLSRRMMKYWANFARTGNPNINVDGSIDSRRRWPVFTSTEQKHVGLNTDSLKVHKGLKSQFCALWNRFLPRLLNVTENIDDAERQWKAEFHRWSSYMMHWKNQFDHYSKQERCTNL
In the next assay the test system is Verticillium dahliae. Put plainly: Antifungal activity against Verticillium dahliae assessed as reduction in fungal cell growth incubated for 48 hrs by serial dilution method. It is filed as functional.
A further assay concerns Staphylococcus aureus. Kind of assay: Antibacterial activity against Staphylococcus aureus assessed as reduction in bacterial cell growth incubated for 24 hrs by filter paper assay. The format is functional.
The subject of the next assay is Fusarium oxysporum. Kind of assay: Antifungal activity against Fusarium oxysporum assessed as reduction in fungal cell growth incubated for 48 hrs by serial dilution method. It is filed as functional.
Assay [2] concerns Colletotrichum orbiculare. Put plainly: Antifungal activity against Colletotrichum orbiculare assessed as reduction in fungal cell growth incubated for 48 hrs by serial dilution method. It is filed as functional.
For a further assay, the system named is Penicillium citrinum. Put plainly: Antifungal activity against Penicillium citrinum assessed as reduction in fungal cell growth incubated for 48 hrs by serial dilution method. It is filed as functional.
A further assay has as its system Candida. Put plainly: Antifungal activity against […] assessed as reduction in fungal cell growth incubated for 48 hrs by serial dilution method. It is filed as functional.
The test system of the next assay is Escherichia coli. Put plainly: Antibacterial activity against Escherichia coli assessed as reduction in bacterial cell growth incubated for 24 hrs by filter paper assay. It is filed as functional.

In the case of `Cc1ccc(S(=O)(=O)N2CCC3(Cc4cccc(C)c4)c4ccccc4N(Cc4cccc(C)c4)C23)cc1` (stereo not drawn), the MIC amounted to 250 µg/mL (≈ 478 µM) with Aspergillus niger; 125 µg/mL (≈ 239 µM) in the assay on Bacillus cereus; 250 µg/mL (≈ 478 µM) in the assay on Aspergillus flavus; 125 µg/mL (≈ 239 µM) in [1]; 250 µg/mL (≈ 478 µM) in the assay on Cytospora; 62.5 µg/mL (≈ 120 µM) in the assay on Verticillium dahliae. In addition, the MIC (with Fusarium oxysporum; in assay [2]; in the assay with Candida) was 250 µg/mL (≈ 478 µM) throughout. Moreover, the MIC entry in the assay on Cryptococcus neoformans, in the assay on Curvularia lunata, in the assay on Ralstonia solanacearum, in the assay on Pseudomonas aeruginosa, with Candida tropicalis and in the assay on Staphylococcus aureus was “inactive” in each case. In addition, the MIC result with Penicillium citrinum and in the assay on Escherichia coli was “inactive” each time. Besides, the pIC50 against Acetylcholinesterase is 4.89.

As to `CCCCCC(=O)N1CCC2(Cc3ccccc3C)c3ccccc3N(Cc3ccccc3C)C12` (stereo not drawn), the MIC in the assay with Aspergillus niger turned out to be 250 µg/mL (≈ 536 µM); with Curvularia lunata, 125 µg/mL (≈ 268 µM); with Ralstonia solanacearum, 250 µg/mL (≈ 536 µM); in the assay on Aspergillus flavus it was 250 µg/mL (≈ 536 µM); in the assay with Pseudomonas aeruginosa, 125 µg/mL (≈ 268 µM); in the assay on Cytospora, 125 µg/mL (≈ 268 µM). Besides, the MIC in the assay with Verticillium dahliae amounted to 62.5 µg/mL (≈ 134 µM); in the assay with Fusarium oxysporum, 125 µg/mL (≈ 268 µM); in [2], 250 µg/mL (≈ 536 µM); in the assay with Penicillium citrinum, 250 µg/mL (≈ 536 µM); in the assay on Candida, 125 µg/mL (≈ 268 µM). In addition, the MIC entry (with Cryptococcus neoformans; in the assay on Bacillus cereus; in [1]; in the assay with Candida tropicalis; in the assay with Staphylococcus aureus; in the assay with Escherichia coli) was “inactive” each time. At Acetylcholinesterase, this compound gave a pIC50 of 3.66.

As to `CCCCCC(=O)N1CCC2(Cc3cccc(C)c3)c3ccccc3N(Cc3cccc(C)c3)C12` (stereo not drawn), the MIC amounted to 250 µg/mL (≈ 536 µM) with Aspergillus niger; 250 µg/mL (≈ 536 µM) in the assay on Bacillus cereus; 250 µg/mL (≈ 536 µM) with Ralstonia solanacearum; 250 µg/mL (≈ 536 µM) in the assay on Aspergillus flavus; 125 µg/mL (≈ 268 µM) in the assay on Pseudomonas aeruginosa; 250 µg/mL (≈ 536 µM) in the assay with Candida tropicalis. In addition, the MIC in the assay on Cytospora came out at 125 µg/mL (≈ 268 µM); in the assay on Verticillium dahliae it was 15.6 µg/mL (≈ 33.5 µM); in the assay with Fusarium oxysporum, 125 µg/mL (≈ 268 µM); in [2], 250 µg/mL (≈ 536 µM); with Penicillium citrinum, 250 µg/mL (≈ 536 µM); with Candida it was 250 µg/mL (≈ 536 µM). Moreover, the MIC entry (with Cryptococcus neoformans; in the assay on Curvularia lunata; in assay [1]; with Staphylococcus aureus; with Escherichia coli) was “inactive” each time. On Acetylcholinesterase, the pIC50 was 3.85.

For the compound `Cc1ccccc1CN1c2ccccc2C2(Cc3ccccc3C)CCN(C(=O)c3ccccc3C)C12` (stereo not drawn), the MIC stood at 125 µg/mL (≈ 257 µM) in the assay on Aspergillus niger; 250 µg/mL (≈ 514 µM) with Bacillus cereus; 62.5 µg/mL (≈ 128 µM) in the assay on Curvularia lunata; 125 µg/mL (≈ 257 µM) in the assay with Ralstonia solanacearum; 250 µg/mL (≈ 514 µM) in the assay with Aspergillus flavus; 250 µg/mL (≈ 514 µM) in [1]. Further, the MIC with Candida tropicalis, with Cytospora, in the assay on Verticillium dahliae, with Staphylococcus aureus, in the assay with Fusarium oxysporum and with Penicillium citrinum was 250 µg/mL (≈ 514 µM) throughout. For the same compound, in the assay on Candida, the MIC is 250 µg/mL (≈ 514 µM). In addition, the MIC entry (with Cryptococcus neoformans; with Pseudomonas aeruginosa; in assay [2]; in the assay on Escherichia coli) was “inactive” throughout. Further, the pIC50 at Acetylcholinesterase is 3.64.

`Cc1cccc(CN2c3ccccc3C3(Cc4cccc(C)c4)CCN(C(=O)COc4ccccc4)C23)c1` (stereo not drawn): the MIC was determined as 250 µg/mL (≈ 497 µM) with Aspergillus niger; 250 µg/mL (≈ 497 µM) with Bacillus cereus; 250 µg/mL (≈ 497 µM) in the assay on Aspergillus flavus; 250 µg/mL (≈ 497 µM) in assay [1]; 125 µg/mL (≈ 249 µM) with Candida tropicalis; 125 µg/mL (≈ 249 µM) in the assay with Cytospora. The MIC (in the assay with Verticillium dahliae; in the assay with Fusarium oxysporum; in [2]; in the assay with Penicillium citrinum; in the assay with Candida) was 250 µg/mL (≈ 497 µM) throughout. Also, the MIC entry in the assay on Cryptococcus neoformans, in the assay on Curvularia lunata, with Ralstonia solanacearum, with Pseudomonas aeruginosa, in the assay on Staphylococcus aureus and in the assay on Escherichia coli was “inactive” in each case. Moreover, on Acetylcholinesterase, the negative logarithm of the IC50 (pIC50) is 5.20.

For the compound `CCCCCCC(=O)N1CCC2(Cc3ccccc3C)c3ccccc3N(Cc3ccccc3C)C12` (stereo not drawn), the MIC in the assay on Aspergillus niger came out at 250 µg/mL (≈ 520 µM); in the assay with Curvularia lunata, 125 µg/mL (≈ 260 µM); in the assay with Ralstonia solanacearum it was 125 µg/mL (≈ 260 µM); with Aspergillus flavus, 250 µg/mL (≈ 520 µM); in assay [1], 250 µg/mL (≈ 520 µM); in the assay on Pseudomonas aeruginosa it was 250 µg/mL (≈ 520 µM). The MIC in the assay with Candida tropicalis stood at 250 µg/mL (≈ 520 µM); in the assay on Cytospora it was 62.5 µg/mL (≈ 130 µM); in the assay with Verticillium dahliae, 62.5 µg/mL (≈ 130 µM); in the assay with Fusarium oxysporum, 125 µg/mL (≈ 260 µM); in assay [2], 250 µg/mL (≈ 520 µM); in the assay with Penicillium citrinum, 125 µg/mL (≈ 260 µM). The MIC in the assay on Candida and in the assay with Escherichia coli was 250 µg/mL (≈ 520 µM) throughout. For the same compound, the MIC result in the assay on Cryptococcus neoformans, with Bacillus cereus and in the assay on Staphylococcus aureus was “inactive” each time. Also, the pIC50 against Acetylcholinesterase was 4.04.

As usually defined, the MIC is the least concentration at which growth counts as inhibited. A word on the pIC50: it is −log10 of the IC50, conventionally taken in molar units. Low readings indicate a high IC50, high ones a low IC50.
